The subject of one test is B16-Ova cells. Put plainly: B16-Ova tumor challenge with Ova-pulsed antibody-treated DCs. The settings on record: mice given wild type DCs or B7DC reconstituted knockout DCs treated with antibody. Type of test: in vivo, mouse. The method, then:
FIG. 17 is a graph depicting protection of mice from B16-Ova tumor challenge by injection of Ova-pulsed DCs expressing the Kb-peptide constructs treated with MTabs. Tumor area was measured daily, with tumor area on day 11 represented in the graph.
DCs treated with hIgM12 can induce potent anti-tumor immunity. […] A variation of this model was used to determine whether Kb-peptide expressing DCs could induce protective tumor immunity. C57BL6 mice were injected subcutaneously in the right flank with 5×10^5 B16-Ova cells, a B16 variant engineered to express ovalbumin. Wild type DCs or B7DC−/− DCs transduced with mB7DC or the Kb constructs were pulsed with 10 ug/mL ovalbumin and treated with 10 ug/mL of either hIgM12 or hIgM22, 24 hours prior to injection. Before injection, DCs were washed and resuspended in 200 μL, HBSS. 10^6 DCs were injected intravenously by tail vein concurrent to B16 injection. Three mice were used in each treatment group. Tumor area was measured daily, and mice were sacrificed when tumor area reached 289 mm^2. […] Thus, DC expressing Kb-peptide fusions were able to induce protective tumor immunity.

For another test, the system named is human DC. Put plainly: Cap formation / FRET on human DC. Type of test: cell-based. Here is the method: DC of murine origin were stained with anti-Class II-FITC (MF/114.15.2), and either anti-CD80-PE (16.10A1)/CD86-PE (GL-1), or anti-CD11c-PE (N418). DC of human origin were stained with anti-Class II-FITC (LN3) and anti-CD80-PE (2D10.4)/CD86-PE (IT2.2). All incubations were carried out for 15 minutes at 37° C. The cells were subsequently stimulated with 10 μg/ml of control (sHIgM39) or B7-DC XAb, and were observed every 5 minutes using time lapse confocal imaging at 40.times magnification with a LSM510 Laser scanning confocal microscope having a 37° C. stage (Carl-Zeiss Inc, Oberkochen, Germany). Jurkat cells were pre stained with anti-human CD28-FITC (CD28.2) for 15 minutes, followed by addition of 10 μg/ml of MTAb control antibody sHIgM39, MTAb sHIgM22, or anti-K^b IgM (28-13-3), and were and analyzed in the same manner as the DC.
The flow cytometry approach for FRET was used as a way of quantifying molecular aggregation on the cell surface and was carried out as described previously (Block et al. (2001) J. Immunol. 167:821-826). Briefly, DC of murine origin were stained with anti-Class II APC (M5/114.15.2) and anti-CD80-PE (16.10A1)/CD86-PE(GL-1) for 15 minutes to visualize FRET between these molecules. […] Data collected as log10 fluorescence were analyzed using CELLQUEST™ (BD Biosciences). […]

Another test has as its system bone-marrow derived DCs. The test is described as follows: FRET on DCs expressing Kb-peptide constructs. The class given is cell-based, mouse. The method, then: Kb, Kb-12p9A, Kb-22p3, and Kb-22p12p were placed in a VSV-G pseudotyped pBabe Puro retroviral vector, a vector based on the Maloney Murine Retrovirus. […] Retrovirus was produced by transient […] of 293T cells, and supernatant was concentrated 100:1 by ultracentrifugation on a 10% sucrose cushion. The retrovirus was titered with a colony forming unit assay of HT-1080 cells transduced with limiting dilutions of the supernatant concentrate, followed by selection with 2 ug/mL puromycin. To make DCs, bone marrow was harvested from Balb/c, C57BL6 mice or B7DC−/− mice on a C57BL6 background.
Bone marrow was placed in RPMI+10% Cosmic Calf Serum with 1 ng/mL IL-4 and 10 ng/mL GM-CSF, and plated at 10^6/mL in 24 well plates. On day 2 post-plating, media was aspirated; fresh media was added with 0.5 MOI retrovirus and 4 ug/mL polybrene. Using this system, the peptide constructs were expressed in cultured DCs (FIG. 13).
To directly compare the activity of the MTabs hIgM12 and hIgM22, a series of well-defined biological outputs of treatment of wild type DCs with hIgM12 was used. FRET was used as an output for formation of the multimolecular cap seen upon binding of hIgM12 to wild type DCs. The emission of phycoerythrin (PE) was used to excite APC, which normally emits in the FL4 channel but under FRET emits in the FL3 channel. Experiments were conducted to test FRET of CD40-PE to Class II APC, and CD80-PE to Class II APC (FIG. 14). Either wild type C57BL6 DCs or B7DC−/− DCs transduced with either B7DC or the Kb constructs were used. DCs were stained with the fluorochrome-labeled antibodies, and then treated for 15 minutes at 37° C. with 10 μg/mL of either hIgM12, hIgM22, or 28-13-3.

For the substance “B7-DC XAb: human monoclonal IgM from a Waldenstrom's macroglobulinemia patient that binds and cross-links B7-DC on DC”, the “protection from tumor outgrowth” value in the test with B16-Ova cells is recorded as “successfully protected from tumor outgrowth”. The “reorganization of tagged class II, CD80, CD86 into a capped cluster” value with human DC is on record as “reorganized into a distinctly capped cluster”. In the test on human DC (within ten minutes), the “FRET among class II, CD80 and CD86” value is given as “strong FRET signal”. In addition, the FRET response entry with bone-marrow derived DCs (B7DC−/− DCs with restored B7DC expression) is recorded as “responded as well”; in the test on bone-marrow derived DCs (B7DC−/− Kb-12p9A DCs), “responded”; in the test on bone-marrow derived DCs (B7DC−/− Kb-22p12p DCs) it was “responded”. The “FRET response (CD40-PE or CD80-PE to Class II APC)” value in the test on bone-marrow derived DCs (wild type DCs, 10 μg/mL, 15 minutes) was “responded”.

(Values after US11274131B2, “IgM-mediated receptor clustering and cell modulation” (MAYO FOUNDATION FOR MEDICAL EDUCATION AND RESEARCH, priority 2007, dated 2022).)
